Assay results reported in paper PMC3179844 (Chemmedchem, 2011).

Key:
[1] = target: human cytochrome P450 3A4-BQ (Homo sapiens, UniProt P08684); experiment: Inhibition of human cytochrome P450 3A4-BQ
[2] = target: human cytochrome P450 3A4-BFC (Homo sapiens, UniProt P08684); experiment: Inhibition of human cytochrome P450 3A4-BFC; assay type: in vitro ADME
[3] = target: mouse 11β-HSD1 (Mus musculus, UniProt P50172); experiment: Cellular 11β-HSD1 inhibition, mouse enzyme; assay type: cell-based; settings: mean of three measurements
[4] = target: human cytochrome P450 2C9 (Homo sapiens, UniProt P11712); experiment: Inhibition of human cytochrome P450 2C9; assay type: in vitro ADME
[5] = target: human cytochrome P450 2C19 (Homo sapiens, UniProt P33261); experiment: Inhibition of human cytochrome P450 2C19; assay type: in vitro ADME
[6] = target: human cytochrome P450 2D6 (Homo sapiens, UniProt P10635); experiment: Inhibition of human cytochrome P450 2D6; assay type: in vitro ADME
[7] = Metabolism studies in human liver microsomes; assay type: in vitro ADME; settings: for metabolites identified / half-life: human liver microsomes, 37 °C, NADPH; for microsomal CLint / half-life: human, liver microsomes; for half-life: 40 min, mean of two measurements
[8] = target: T1, human cytochrome P450 1A2 (Homo sapiens, UniProt P05177); experiment: Inhibition of human cytochrome P450 1A2; assay type: in vitro ADME
T1 sequence (P05177 1-516): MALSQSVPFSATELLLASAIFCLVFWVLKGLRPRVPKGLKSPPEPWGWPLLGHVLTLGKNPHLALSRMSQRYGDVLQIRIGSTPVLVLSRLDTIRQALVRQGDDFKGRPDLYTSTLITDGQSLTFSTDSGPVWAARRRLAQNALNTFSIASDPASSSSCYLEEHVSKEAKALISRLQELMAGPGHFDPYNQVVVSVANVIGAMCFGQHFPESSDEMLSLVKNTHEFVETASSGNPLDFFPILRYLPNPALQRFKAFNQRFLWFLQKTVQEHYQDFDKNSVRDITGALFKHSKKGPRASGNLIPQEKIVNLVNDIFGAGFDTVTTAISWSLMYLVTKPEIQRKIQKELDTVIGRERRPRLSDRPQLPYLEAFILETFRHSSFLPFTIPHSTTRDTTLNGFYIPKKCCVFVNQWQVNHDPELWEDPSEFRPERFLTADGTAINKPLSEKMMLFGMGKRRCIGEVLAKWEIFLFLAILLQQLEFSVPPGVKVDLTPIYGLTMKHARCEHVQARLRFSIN

[9] = Water solubility in Na2HPO4 buffer solution; assay type: physicochemical; settings: aqueous buffer

Chain of human cytochrome P450 2C9 (P11712 whole entry): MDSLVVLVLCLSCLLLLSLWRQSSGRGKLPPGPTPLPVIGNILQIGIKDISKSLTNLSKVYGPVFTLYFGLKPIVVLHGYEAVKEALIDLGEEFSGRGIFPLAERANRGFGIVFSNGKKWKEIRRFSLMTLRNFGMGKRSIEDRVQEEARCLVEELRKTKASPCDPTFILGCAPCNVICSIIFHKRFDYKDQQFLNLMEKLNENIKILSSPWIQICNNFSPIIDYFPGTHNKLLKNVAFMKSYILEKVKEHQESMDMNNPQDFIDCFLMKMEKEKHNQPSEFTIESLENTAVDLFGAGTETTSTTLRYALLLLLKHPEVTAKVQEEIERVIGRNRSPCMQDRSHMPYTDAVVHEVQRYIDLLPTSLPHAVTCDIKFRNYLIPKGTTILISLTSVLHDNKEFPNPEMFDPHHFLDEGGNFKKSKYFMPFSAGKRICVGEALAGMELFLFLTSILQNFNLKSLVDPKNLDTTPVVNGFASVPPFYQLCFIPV
Chain of human cytochrome P450 2C19 (P33261 whole entry): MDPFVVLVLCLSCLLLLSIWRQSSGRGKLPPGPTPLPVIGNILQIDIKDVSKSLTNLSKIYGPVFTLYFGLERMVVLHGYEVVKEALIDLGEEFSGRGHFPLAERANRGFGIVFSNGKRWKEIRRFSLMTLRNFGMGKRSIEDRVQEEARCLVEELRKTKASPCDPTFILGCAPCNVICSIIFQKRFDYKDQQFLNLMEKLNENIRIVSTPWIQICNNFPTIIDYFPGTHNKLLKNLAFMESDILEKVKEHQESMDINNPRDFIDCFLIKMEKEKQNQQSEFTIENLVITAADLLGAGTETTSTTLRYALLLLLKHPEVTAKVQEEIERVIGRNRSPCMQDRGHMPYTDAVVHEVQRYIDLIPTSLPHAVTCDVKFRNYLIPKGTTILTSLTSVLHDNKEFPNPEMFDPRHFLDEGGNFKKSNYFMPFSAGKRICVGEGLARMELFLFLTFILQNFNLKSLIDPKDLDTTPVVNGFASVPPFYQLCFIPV
Chain of mouse 11β-HSD1 (P50172 whole entry): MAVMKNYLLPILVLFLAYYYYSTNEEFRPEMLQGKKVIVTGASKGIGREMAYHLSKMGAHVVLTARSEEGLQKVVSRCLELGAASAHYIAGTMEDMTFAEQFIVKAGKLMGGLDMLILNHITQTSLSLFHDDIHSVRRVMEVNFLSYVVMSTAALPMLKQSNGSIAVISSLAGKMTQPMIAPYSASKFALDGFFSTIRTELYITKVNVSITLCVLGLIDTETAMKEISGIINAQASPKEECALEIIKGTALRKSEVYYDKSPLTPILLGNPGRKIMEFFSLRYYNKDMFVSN
Chain of human cytochrome P450 3A4-BFC (P08684 whole entry): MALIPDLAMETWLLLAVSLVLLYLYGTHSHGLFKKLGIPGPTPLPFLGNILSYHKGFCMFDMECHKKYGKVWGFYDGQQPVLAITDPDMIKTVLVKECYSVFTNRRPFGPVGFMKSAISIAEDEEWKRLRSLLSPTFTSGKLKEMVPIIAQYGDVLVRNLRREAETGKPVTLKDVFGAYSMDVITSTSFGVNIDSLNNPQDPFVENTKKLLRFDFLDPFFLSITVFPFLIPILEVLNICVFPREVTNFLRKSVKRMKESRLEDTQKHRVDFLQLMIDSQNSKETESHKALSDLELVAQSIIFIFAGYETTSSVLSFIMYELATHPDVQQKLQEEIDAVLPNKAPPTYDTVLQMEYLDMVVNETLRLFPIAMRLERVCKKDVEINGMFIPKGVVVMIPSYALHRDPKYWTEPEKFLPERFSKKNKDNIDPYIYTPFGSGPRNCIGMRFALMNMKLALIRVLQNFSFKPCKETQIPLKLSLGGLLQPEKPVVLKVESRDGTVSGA
Chain of human cytochrome P450 3A4-BQ (P08684 whole entry): as above
Chain of human cytochrome P450 2D6 (P10635 whole entry): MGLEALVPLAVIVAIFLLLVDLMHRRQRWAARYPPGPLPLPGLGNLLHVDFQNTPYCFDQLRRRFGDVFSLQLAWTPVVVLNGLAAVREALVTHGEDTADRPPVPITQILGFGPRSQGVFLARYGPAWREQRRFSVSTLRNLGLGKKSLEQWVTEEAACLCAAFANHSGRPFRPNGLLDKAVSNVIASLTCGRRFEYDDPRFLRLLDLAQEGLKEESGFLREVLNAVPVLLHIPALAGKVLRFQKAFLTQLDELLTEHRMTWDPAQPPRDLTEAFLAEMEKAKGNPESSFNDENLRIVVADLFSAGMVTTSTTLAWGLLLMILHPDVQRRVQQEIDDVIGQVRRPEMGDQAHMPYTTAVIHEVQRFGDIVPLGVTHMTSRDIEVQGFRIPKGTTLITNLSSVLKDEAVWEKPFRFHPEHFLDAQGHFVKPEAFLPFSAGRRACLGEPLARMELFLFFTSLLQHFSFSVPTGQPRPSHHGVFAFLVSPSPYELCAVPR

| SMILES | IC50 [1] | IC50 [2] | IC50 [3] | IC50 [4] | IC50 [5] | IC50 [6] | metabolites identified [7] | microsomal CLint [7] | half-life [7] | IC50 [8] | solubility [9] | melting point |
| --- | --- | --- | --- | --- | --- | --- | --- | --- | --- | --- | --- | --- |
| O=C(COCc1ccccn1)C12CC3CC(CC(C3)C1)C2 [Compound 28, 1-(Adamantan-1-yl)-2-(pyridin-2-ylmethoxy)ethan-1-one] | 78 µM | 20 µM | 0.044 µM | > 100 µM | > 100 µM | > 100 µM | no metabolites identified | 8.9 µL/min/mg | 1.13 h | > 100 µM |  |  |
| O=C(C[S+]([O-])c1ccncc1)C12CC3CC(CC(C3)C1)C2 (stereo not shown) [Compound 18, 1-(Adamantan-1-yl)-2-(pyridine-4-sulfinyl)ethan-1-one] | > 100 µM | 12 µM | 0.061 µM | > 100 µM | > 100 µM | > 100 µM |  |  |  | > 100 µM |  | 136 to 138 °C |
| O=C(COCc1cccnc1)C12CC3CC(CC(C3)C1)C2 [Compound 31, 1-(Adamantan-1-yl)-2-(pyridin-3-ylmethoxy)ethan-1-one] | 1.6 µM | 68 µM |  | > 100 µM | 46 µM |  | no metabolites identified | 3.7 µL/min/mg | 2.13 h | 23 µM |  |  |

The remaining lines, values ahead:

| IC50 [1] | IC50 [2] | IC50 [3] | IC50 [4] | IC50 [5] | IC50 [6] | metabolites identified [7] | microsomal CLint [7] | half-life [7] | IC50 [8] | solubility [9] | melting point | SMILES |
| --- | --- | --- | --- | --- | --- | --- | --- | --- | --- | --- | --- | --- |
|  |  |  |  |  |  |  |  |  |  | > 4000 µg/mL |  | Cl.O=C(COCc1cccnc1)C12CC3CC(CC(C3)C1)C2 [Compound 62, 1-(Adamantan-1-yl)-2-(pyridin-3-ylmethoxy)ethan-1-one hydrochloride] |
| 24 µM | > 100 µM | 0.035 µM | > 100 µM | 24 µM |  |  |  |  | 36 µM |  | 116 to 117 °C | O=C(CS(=O)(=O)Cc1ccccn1)C12CC3CC(CC(C3)C1)C2 [Compound 43, 1-(Adamantan-1-yl)-2-[(pyridin-2-ylmethyl)sulfonyl]ethan-1-one] |
